According to patent US11708366B2, “Heteroaryl substituted spiropiperidinyl derivatives and pharmaceutical uses thereof” (Novartis AG, priority 2020, dated 2023):

Biological target: LTC4S (Homo sapiens (Human), UniProt Q16873)
Test: Human whole blood HTRF assay (LTC4 release after calcium ionophore A23187)
Assay type: cell-based
Details: human whole blood diluted 1:3, 4 h incubation, calcium ionophore A23187 stimulation, LTC4 by HTRF; read-out: human whole blood HTRF IC50
Protocol: B. Human Whole Blood HTRF Assay
LTC4 synthase catalyzes the conversion of Leukotriene A4 (LTA4) to Leukotriene C4 (LTC4) in the presence of reduced glutathione (GSH) as a co-substrate. For testing the inhibition of LTC4S, compounds are prepared for either eight-point or sixteen-point dose response studies in 384-well Labcyte low dead volume (LDV) plates. For eight-point dose response studies, compounds are diluted 1:5 starting at 1 μM concentration in 90% DMSO. […] Compounds are studied in duplicates. Ten wells are filled with 90% DMSO which correspond to the stimulated and unstimulated control wells. […] The morning of the assay, whole blood is collected from three human donors. Donors must be non-smokers and must not have taken NSAIDs within the 48 hours prior to blood collection. The amount of blood collected per donor depends on the amount of compounds to be tested and the dose response format in which they are to be studied (about 8 mL of whole blood for either 22 compounds in 8-point dose response format or 11 compounds in 16-point dose response format). […] 50 μL of diluted blood are then dispensed into each assay plate well with pre-dispensed compounds and DMSO for the stimulated and unstimulated controls using a Thermo Scientific™ Multidrop™ Combi reagent dispenser, and incubated at 37° C. for 4 hours. Calcium ionophore A23187 is used to induce a rapid increase in intracellular levels of Ca^2+. The Ca^2+ functions as a universal second messenger in various immune cells, such as T cells, B cells and mast cells, and is used to induce degranulation and release of eicosanoids, including LTC4, by cells contained in the whole blood samples. […] All but the unstimulated control wells are subsequently stimulated by dispensing 1 μL of the 0.5 mg/mL calcium ionophore suspension using the Thermo Scientific™ Multidrop™ Combi reagent dispenser. Plates are incubated for 15 minutes at 37° C. Plates are then centrifuged at 300 g for 10 minutes at room temperature to pellet blood cells and stop the reaction. […] Plates are sealed and stored at −80° C.
In order to measure the amount of LTC4 released by cells in the human blood samples during calcium ionophore stimulation, supernatants are analyzed using the Cisbio LTC4 homogeneous time-resolved FRET (HTRF) kit (Cisbio #64LC4PEH). […] Ten serially diluted standard curve solutions are also dispensed in duplicate into each plate as instructed in the protocol. Blank controls and cryptate control wells are also prepared. Then, 5 μL of anti-LTC4-d2 working solution are dispensed into all the wells, but the cryptate control wells. Subsequently, 5 μL of anti-LTC4-Eu3+ cryptate working solution are dispensed into all the wells. Plates are then covered with a lid and incubated at room temperature for one hour with gentle orbital shaking (˜450 rpm). […] HTRF ratios are calculated for each well by dividing the 665 nm intensity by the 620 nm intensity, and multiplying the resulting ratio by 10,000. LTC4 standard curves are interpolated for each plate and used to convert the HTRF ratio readouts into the amount of LTC4 present in each well (in ng/mL). Parametric curve fitting is used to obtain inhibition curves and IC50 values.

Molecule | IC50 [µM]
O=C1CCCC2(CCN(c3cc(C(F)(F)C(F)(F)F)nc(CO)n3)CC2)N1c1ccc(F)c(F)c1 [Example 79, 1-(3,4-difluorophenyl)-9-(2-(hydroxymethyl)-6-(perfluoroethyl)pyrimidin-4-yl)-1,9-diazaspiro[5.5]undecane-2-one] | 0.056
Nc1nc(OC2CCOCC2)cc(N2CCC3(CC2)C[C@H](F)CC(=O)N3c2ccc(F)c(F)c2)n1 (single isomer, unassigned) [Example 116a, (R)-9-(2-amino-6-((tetrahydro-2H-pyran-4-yl)oxy)pyrimidin-4-yl)-1-(3,4-difluorophenyl)-4-fluoro-1,9-diazaspiro[5.5]undecan-2-one, or (S)-9-(2-amino-6-((tetrahydro-2H-pyran-4-yl)oxy)pyrimidin-4-yl)-1-(3,4-difluorophenyl)-4-fluoro-1,9-diazaspiro[5.5]undecan-2-one] | 0.013
CC1(O)CN(c2nc(N)cc(N3CCC4(CCCC(=O)N4c4ccc(F)c(F)c4)CC3)n2)C1 [Example 43, 9-(6-amino-2-(3-hydroxy-3-methylazetidin-1-yl)pyrimidin-4-yl)-1-(3,4-difluorophenyl)-1,9-diazaspiro[5.5]undecan-2-one] | 0.4
Nc1nc(N2CCC3(CCCC(=O)N3c3ccc(F)c(F)c3)CC2)c(F)c(N2CCC(O)(C(F)(F)F)CC2)n1 [Example 41, 9-(2-amino-5-fluoro-6-(4-hydroxy-4-(trifluoromethyl)piperidin-1-yl)pyrimidin-4-yl)-1-(3,4-difluorophenyl)-1,9-diazaspiro[5.5]undecan-2-one] | 0.005
CC(Oc1cc(N2CCC3(CCCC(=O)N3c3ccc(F)c(F)c3)CC2)ncn1)C(F)(F)F (racemic) [Example 86, rac-1-(3,4-dfluorophenyl)-9-(6-((1,1,1-trifluoropropan-2-yl)oxy)pyrimidin-4-yl)-1,9-diazaspiro[5.5]undecan-2-one] | 0.002
C[C@H](Oc1cc(N2CCC3(CCOC(=O)N3c3ccc(F)c(F)c3)CC2)nc(N)n1)C(F)(F)F [Example 113b, (S)-9-(2-amino-6-((1,1,1-trifluoropropan-2-yl)oxy)pyrimidin-4-yl)-1-(3,4-difluorophenyl)-3-oxa-1,9-diazaspiro[5.5]undecan-2-one, or (R)-9-(2-amino-6-((1,1,1-trifluoropropan-2-yl)oxy)pyrimidin-4-yl)-1-(3,4-difluorophenyl)-3-oxa-1,9-diazaspiro[5.5]undecan-2-one] | 0.036
Nc1nc(-c2ccc(F)cc2)cc(N2CCC3(CCCC(=O)N3c3ccc(F)c(F)c3)CC2)n1 [Example 75] | 0.004
Nc1nc(OCCO)cc(N2CCC3(CCCC(=O)N3c3ccc(F)c(F)c3)CC2)n1 [Example 94, 9-(2-amino-6-(2-hydroxyethoxy)pyrimidin-4-yl)-1-(3,4-difluorophenyl)-1,9-diazaspiro[5.5]undecan-2-one] | 0.83
CC1(Oc2cc(N3CCC4(CCCC(=O)N4c4ccc(F)c(F)c4)CC3)nc(N)n2)CCOC1 (racemic) [Example 104, rac-9-(2-amino-6-((3-methyltetrahydrofuran-3-yl)oxy)pyrimidin-4-yl)-1-(3,4-difluorophenyl)-1,9-diazaspiro[5.5]undecan-2-one] | 0.005
O=C1CCCC2(CCN(c3cc(OCC(F)(F)F)n[nH]c3=O)CC2)N1c1ccc(F)c(F)c1 [Example 13, 1-(3,4-difluorophenyl)-9-(3-oxo-6-(2,2,2-trifluoroethoxy)-2,3-dihydropyridazin-4-yl)-1,9-diazaspiro[5.5]undecan-2-one] | 0.036
O=C1CCCC2(CCN(c3cc(-n4cnc(C(F)(F)F)c4)ncn3)CC2)N1c1ccc(F)c(F)c1 [Example 58, 1-(3,4-difluorophenyl)-9-(6-(4-(trifluoromethyl)-1H-imidazol-1-yl)pyrimidin-4-yl)-1,9-diazaspiro[5.5]undecan-2-one] | 0.56
O=C1CCCC2(CCN(c3cc(OCC(F)(F)F)nc(Cl)n3)CC2)N1c1ccc(F)c(F)c1 [Example 88, 9-(2-chloro-6-(2,2,2-trifluoroethoxy)pyrimidin-4-yl)-1-(3,4-difluorophenyl)-1,9-diazaspiro[5.5]undecan-2-one] | 1.37
Nc1nc(N2CCC3(CCCC(=O)N3c3ccc(F)c(F)c3)CC2)cc(N2C[C@H]3C[C@@H]2CO3)n1 (racemic) [Example 46, rac-9-(2-amino-6-((1R,4R)-2-oxa-5-azabicyclo[2.2.1]heptan-5-yl)pyrimidin-4-yl)-1-(3,4-difluorophenyl)-1,9-diazaspiro[5.5]undecan-2-one] | 0.49
O=C1CCCC2(CCN(c3cc(-n4cc(Cl)cn4)ncn3)CC2)N1c1ccc(F)c(F)c1 [Example 55, 9-(6-(4-chloro-1H-pyrazol-1-yl)pyrimidin-4-yl)-1-(3,4-difluorophenyl)-1,9-diazaspiro[5.5]undecan-2-one] | 0.006
CC(C)(O)c1nc(N2CCC3(CCCC(=O)N3c3ccc(F)c(F)c3)CC2)cc(-n2cc(C(F)(F)F)cn2)n1 [Example 65, 1-(3,4-difluorophenyl)-9-(2-(2-hydroxypropan-2-yl)-6-(4-(trifluoromethyl)-1H-pyrazol-1-yl)pyrimidin-4-yl)1,9-diazaspiro[5.5]undecane-2-one] | 0.001
Nc1nc(OC2CCOCC2)cc(N2CCC3(CC2)C[C@H](F)CC(=O)N3c2ccc(F)c(F)c2)n1 (single isomer, unassigned) [Example 116b, (S)-9-(2-amino-6-((tetrahydro-2H-pyran-4-yl)oxy)pyrimidin-4-yl)-1-(3,4-difluorophenyl)-4-fluoro-1,9-diazaspiro[5.5]undecan-2-one, or (R)-9-(2-amino-6-((tetrahydro-2H-pyran-4-yl)oxy)pyrimidin-4-yl)-1-(3,4-difluorophenyl)-4-fluoro-1,9-diazaspiro[5.5]undecan-2-one] | 0.033
NC1(C(F)(F)F)CCN(c2ccnc(N3CCC4(CCCC(=O)N4c4ccc(F)c(F)c4)CC3)n2)CC1 [Example 39, 9-(4-(4-amino-4-(trifluoromethyl)piperidin-1-yl)pyrimidin-2-yl)-1-(3,4-difluorophenyl)-1,9-diazaspiro[5.5]undecan-2-one] | 0.004
[2H]C1(Oc2cc(N3CCC4(CCCC(=O)N4c4ccc(F)c(F)c4)CC3)nc(N)n2)CCOCC1 [Example 103, 9-(2-amino-6-((tetrahydro-2H-pyran-4-yl-4-d)oxy)pyrimidin-4-yl)-1-(3,4-difluorophenyl)-1,9-diazaspiro[5.5]undecan-2-one] | 0.008
O=C1CCCC2(CCN(c3nc(C4=CCC(F)(F)CC4)c[nH]c3=O)CC2)N1c1ccc(F)c(F)c1 [Example 18, 9-(6-(4,4-difluorocyclohex-1-en-1-yl)-3-oxo-3,4-dihydropyrazin-2-yl)-1-(3,4-difluorophenyl)-1,9-diazaspiro[5.5]undecane-2-one] | 0.002
O=C1CCCC2(CCN(c3cc(-n4ccc(C(F)(F)F)n4)ncn3)CC2)N1c1ccc(F)c(F)c1 [Example 57, 1-(3,4-difluorophenyl)-9-(6-(3-(trifluoromethyl)-1H-pyrazol-1-yl)pyrimidin-4-yl)-1,9-diazaspiro[5.5]undecan-2-one] | 0.85
Nc1nc(O[C@H]2COC[C@H]2F)cc(N2CCC3(CCCC(=O)N3c3ccc(F)c(F)c3)CC2)n1 (racemic) [Example 105, rac-9-(2-amino-6-(((3S,4R)-4-fluorotetrahydrofuran-3-yl)oxy)pyrimidin-4-yl)-1-(3,4-difluorophenyl)-1,9-diazaspiro[5.5]undecan-2-one] | 0.006
O=C1CCCC2(CCN(c3cc(-n4cncn4)ncn3)CC2)N1c1ccc(F)c(F)c1 [Example 54, 9-(6-(1H-1,2,4-triazol-1-yl)pyrimidin-4-yl)-1-(3,4-difluorophenyl)-1,9-diazaspiro[5.5]undecan-2-one] | 0.3
(R)-9-(2-amino-6-((1,1,1-trifluoropropan-2-yl)oxy)pyrimidin-4-yl)-1-(3,4-difluorophenyl)-3-oxa-1,9-diazaspiro[5.5]undecan-2-one, or (S)-9-(2-amino-6-((1,1,1-trifluoropropan-2-yl)oxy)pyrimidin-4-yl)-1-(3,4-difluorophenyl)-3-oxa-1,9-diazaspiro[5.5]undecan-2-one [Example 113a] | 0.015
